Where a name gives a salt, the structure may show the parent alone.
Experiments:
[1] = Cell viability, MTT-based colorimetric assay; conditions: human, non-infected human foreskin fibroblasts (HFFs), cell viability after 72 h
Protocol: Cell viability was determined by an MTT-based colorimetric assay (Sigma-Aldrich), and performed at the same time points as the antiviral assay.

HCMV = experiment: Virus entry, pp65 immunofluorescence assay; format: cell-based, Human Cytomegalovirus; conditions: emetine 75 nM, GCV 10 μM, CpG 2006 10 μM, added 24 h prior to infection
HCMV Towne = experiment: HCMV plaque reduction assay in HFFs; format: cell-based, Human Cytomegalovirus
Protocol: Human Foreskin Fibroblasts (HFFs) passage 12–16 (ATCC, CRL-2088) and mouse embryonic fibroblasts (MEFs) passage 9–14 (ATCC, CRL-1658) were grown in Dulbecco's Modified Eagle Medium (DMEM) containing 10% fetal bovine serum (FBS) (Gibco, Carlsbad, CA) in a 5% CO2 incubator at 37°C. Infection with HCMV or HSV was performed in HFFs, and infection with mouse CMV was performed in MEFs. For HCMV, cells were seeded in either a 96-well plate or 100 mm culture plates (Corning Costar, Sigma Aldrich) at 0.5 or 2 million cells /plate. Following 90 minute adsorption, media was removed and cells were washed with PBS. Media containing 4% FBS and compounds were added to each well. Infected treated HFFs were collected at 72 hpi and lysates were assayed for luciferase activity using a luciferase assay kit (Promega, Madison, WI) on GloMax-Multi+ Detection System (Promega). In second cycle assays, supernatants were collected from all conditions of the first cycle at 96 hpi and used for infection of fresh HFFs in 96-well plates. Luciferase activity was measured 72 h following second cycle infection. For HSV1-KOS/Dlux/oriS, a luciferase assay was performed at 24 hpi. Plaque assays were performed with clinical isolates of HSV2 and HCMV Towne (ATCC VR-977). HFFs were seeded at […] in 12-well plates and infected 24 h later with HSV2 at 200 PFU/well. For HCMV or MCMV, HFFs or MEFs were seeded at 0.5 or 2 million cells /plate in a 12-well plate and infected 24 hours later at 100 PFU/well. Following virus adsorption (60 min and 90 min for HSV and HCMV, respectively), virus was aspirated, and DMEM containing 4% fetal bovine serum (FBS) with (for HSV) or without (for HCMV/MCMV) 0.5% carboxymethyl-cellulose, were added with the compounds at indicated concentrations into triplicate wells. After incubation at 37°C for 10 days (for HCMV), 3 days for MCMV or 2 days (for HSV), the overlay was removed and plaques were counted after crystal violet staining.

MCMV = test system: MCMV
Protocol: For infection experiments BALB/c mice, 4–6 weeks old, were purchased from Harlan Laboratories (Indianapolis, Indiana). The Animal Care and Use Committee of Johns Hopkins University approved the experimental procedures. […] Mice were infected intraperitoneally with 10^6 PFU/mice (0.1 mL in 0.8% saline). Control mice received 0.1 ml of saline intraperitoneally. […] GCV was administered intraperitoneally twice daily. […] Control and infected mice received equivalent volumes of saline. Mice were sacrificed at day 14 after infection. Blood samples were collected by cardiac puncture. Salivary glands and liver were harvested and stored at -80°C. Organs were homogenized in DMEM with 4% FBS at a final concentration of 100 mg/mL. Two million MEFs were seeded into 24-well plates. From each sample, 5% of the salivary gland homogenate or 10% of the liver homogenate was used for infection of MEFs in triplicates. Plaques were counted after three days. Whole blood viral load was measured at day 14 by real-time PCR of the glycoprotein B (gB) gene. DNA was extracted using the DNA blood mini kit (Qiagen, Georgetown, MD).

[2] = test system: protein synthesis in HFFs; experiment: Translation inhibition assay; format: cell-based, human; conditions: nM concentrations, non-infected or HCMV-infected cells, 24 h
Protocol: […] HFFs were seeded in a 96-well black, clear bottom tissue culture plate. […] A protein synthesis assay kit (Cayman Chemical, Ann Arbor, Michigan) was used according to manufacturer's protocol to quantify emetine-mediated translation inhibition using a fluorescence based assay.

[3] = all treatment regimens (0.1 or 1 mg/kg oral, from 24 or 72 hpi), day 14

**Q.** For `CC[C@H]1CN2CCc3cc(OC)c(OC)cc3[C@@H]2C[C@@H]1C[C@H]1NCCc2cc(OC)c(OC)cc21` [emetine, emetine dihydrochloride hydrate], which CC50 at 72 h [1] is on record?
**A.** 8 ± 0.56 µM

**Q.** And the “inhibition of viral entry” value (HCMV)?
**A.** neither emetine nor GCV inhibited viral entry

**Q.** And the EC50 (HCMV Towne; Human betaherpesvirus 5, read-out: Mean EC50 ± SD)?
**A.** 0.068 µM

**Q.** And the “reduction in the number and size of plaques” value (HCMV Towne; emetine 75 nM, 2 million cells/plate as compared to 0.5 million cells/plate)?
**A.** 30 fold

**Q.** And the “decrease in MCMV DNA copy number in blood compared to infected control” value (MCMV; 0.1 or 1 mg/kg orally every three days from 24 h or 72 h after infection, day 14)?
**A.** 2 to 4 log10

**Q.** What about the “reduction of viral PFUs in liver” value (MCMV; [3]) of the same compound?
**A.** 3–6 fold

**Q.** And the “reduction of viral PFUs in salivary gland” value (MCMV; [3])?
**A.** 4–6 fold

**Q.** And the “tolerability in mouse CMV model” value (MCMV; mouse)?
**A.** well-tolerated

**Q.** And the “inhibition of protein synthesis” value [2]?
**A.** did not inhibit protein synthesis

Source: paper PMC4919066 (PLoS Pathogens, 2016)
